Experimental data published in patent publication US20220370440A1 (Lead Discovery Center GmbH, priority 2018, published 2022).
pIC50: −log10 of the molar value.

Assays:
[1] = target: EGFR Exon 20 INSNPH Ba/F3 (Homo sapiens, UniProt P00533, DUP771-773, cells depend on it); assay: EGFR Exon 20 INSNPH Ba/F3 CellTiter-Glo; type: cell-based; conditions: CellTiter-Glo, 72 h, read-out: EGFR Exon 20 INSNPH Ba/F3 CTG IC50
Procedure, shortened: (§1)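 Ba/F3 cells were seeded, left 24 h at 37 °C/5% CO2, then exposed to compound dilutions in DMSO for 72 h. Viability was read as ATP luminescence (CellTiter-Glo) and IC50 fitted from dose–response curves; DMSO and 10 μM staurosporine defined the controls, and plates needed Z′ ≥0.5.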

[2] = target: Her2 Exon 20 INSYVMA Ba/F3 (Homo sapiens, UniProt P04626, DUP772-775, cells depend on it); assay: Her2 Exon 20 INSYVMA Ba/F3 CellTiter-Glo; type: cell-based; conditions: CellTiter-Glo, 72 h, read-out: Her2 Exon 20 INSYVMA Ba/F3 CTG IC50
Her2 Exon 20 INSYVMA Ba/F3, sequence (P04626 with tags, fused parts or gaps DUP772-775): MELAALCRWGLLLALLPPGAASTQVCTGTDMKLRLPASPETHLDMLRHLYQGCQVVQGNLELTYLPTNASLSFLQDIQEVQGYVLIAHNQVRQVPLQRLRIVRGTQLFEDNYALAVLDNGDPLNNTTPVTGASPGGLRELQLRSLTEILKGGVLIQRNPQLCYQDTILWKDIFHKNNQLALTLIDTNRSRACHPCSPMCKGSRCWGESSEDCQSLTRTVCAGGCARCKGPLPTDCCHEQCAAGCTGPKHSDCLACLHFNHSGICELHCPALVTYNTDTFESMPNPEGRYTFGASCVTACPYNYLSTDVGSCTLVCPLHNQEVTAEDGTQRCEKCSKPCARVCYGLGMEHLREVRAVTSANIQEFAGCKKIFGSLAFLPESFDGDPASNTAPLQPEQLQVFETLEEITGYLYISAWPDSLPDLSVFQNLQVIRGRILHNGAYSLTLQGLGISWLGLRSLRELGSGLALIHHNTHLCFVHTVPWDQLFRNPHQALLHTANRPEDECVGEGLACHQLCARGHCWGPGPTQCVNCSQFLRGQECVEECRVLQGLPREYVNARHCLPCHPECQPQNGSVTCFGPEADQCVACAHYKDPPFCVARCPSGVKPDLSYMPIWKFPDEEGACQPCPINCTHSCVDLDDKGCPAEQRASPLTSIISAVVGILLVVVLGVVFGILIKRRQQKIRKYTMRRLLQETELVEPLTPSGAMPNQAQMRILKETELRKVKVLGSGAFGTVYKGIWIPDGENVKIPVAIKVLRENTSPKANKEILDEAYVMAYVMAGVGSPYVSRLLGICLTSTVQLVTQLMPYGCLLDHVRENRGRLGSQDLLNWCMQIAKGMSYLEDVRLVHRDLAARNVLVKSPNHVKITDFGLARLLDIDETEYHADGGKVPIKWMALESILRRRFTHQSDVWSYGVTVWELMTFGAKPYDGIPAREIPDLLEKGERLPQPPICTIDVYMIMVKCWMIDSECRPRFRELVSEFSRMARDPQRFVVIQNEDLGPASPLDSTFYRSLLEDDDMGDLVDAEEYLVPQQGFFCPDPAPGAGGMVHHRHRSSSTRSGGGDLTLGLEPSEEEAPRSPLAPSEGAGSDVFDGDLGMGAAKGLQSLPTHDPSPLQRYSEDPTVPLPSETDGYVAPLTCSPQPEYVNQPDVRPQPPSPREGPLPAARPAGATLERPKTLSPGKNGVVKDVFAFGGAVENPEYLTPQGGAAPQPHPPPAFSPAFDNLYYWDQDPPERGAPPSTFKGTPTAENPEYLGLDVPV
Procedure, shortened: as §1

H1975 = H1975 CellTiter-Glo; type: cell-based; conditions: Homo sapiens, NCI-H1975; 72 h compound incubation; read-out: H1975 CTG IC50
Procedure, shortened: (§2)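 Cells seeded, after 24 h at 37° C/5% CO2 treated with compounds in DMSO at various concentrations for 72 h. Viability from ATP luminescence (CellTiter-Glo); DMSO and 10 μM Staurosporine as controls; IC50 from dose-response fit, plates accepted at Z′ ≥0.5.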

EGFR T790ML858R = EGFR T790ML858R (Homo sapiens, UniProt P00533, L858R/T790M); assay: EGFR T790ML858R Lance assay; type: biochemical
EGFR T790ML858R, sequence (P00533 25-1210 T790M/L858R): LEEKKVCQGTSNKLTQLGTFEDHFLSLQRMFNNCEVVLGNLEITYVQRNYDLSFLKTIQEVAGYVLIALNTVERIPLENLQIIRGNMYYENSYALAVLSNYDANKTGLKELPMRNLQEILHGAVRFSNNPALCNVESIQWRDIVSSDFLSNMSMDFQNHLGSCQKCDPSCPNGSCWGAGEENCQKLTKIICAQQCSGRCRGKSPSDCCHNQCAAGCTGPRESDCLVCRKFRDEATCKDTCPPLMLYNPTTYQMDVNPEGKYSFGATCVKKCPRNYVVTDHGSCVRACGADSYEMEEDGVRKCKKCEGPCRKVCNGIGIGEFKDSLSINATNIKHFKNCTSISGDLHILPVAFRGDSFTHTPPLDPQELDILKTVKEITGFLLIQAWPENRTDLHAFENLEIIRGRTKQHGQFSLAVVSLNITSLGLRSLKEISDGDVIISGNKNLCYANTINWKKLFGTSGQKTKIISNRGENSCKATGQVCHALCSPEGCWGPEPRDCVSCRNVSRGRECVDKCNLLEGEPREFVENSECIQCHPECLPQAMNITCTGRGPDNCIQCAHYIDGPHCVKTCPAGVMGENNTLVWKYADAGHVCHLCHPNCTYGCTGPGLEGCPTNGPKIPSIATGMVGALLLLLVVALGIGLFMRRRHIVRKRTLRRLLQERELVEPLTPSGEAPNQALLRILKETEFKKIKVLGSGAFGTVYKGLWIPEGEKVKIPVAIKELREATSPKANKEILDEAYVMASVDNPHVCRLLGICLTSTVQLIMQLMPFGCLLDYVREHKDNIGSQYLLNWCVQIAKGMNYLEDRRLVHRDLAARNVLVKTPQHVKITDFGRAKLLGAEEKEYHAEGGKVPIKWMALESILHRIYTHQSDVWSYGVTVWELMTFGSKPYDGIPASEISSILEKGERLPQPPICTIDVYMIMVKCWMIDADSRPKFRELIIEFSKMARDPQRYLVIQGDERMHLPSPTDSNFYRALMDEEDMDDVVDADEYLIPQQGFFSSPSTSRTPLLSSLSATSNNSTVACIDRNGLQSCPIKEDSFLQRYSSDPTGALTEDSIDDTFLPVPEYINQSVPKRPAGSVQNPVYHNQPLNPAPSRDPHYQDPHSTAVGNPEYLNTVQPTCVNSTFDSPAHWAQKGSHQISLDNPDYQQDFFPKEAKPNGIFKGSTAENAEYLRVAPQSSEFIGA
Description: (§3) Inhibition is indicated as […] [nM] (“−”=not measured). Compounds having an activity designated as “A” provided an IC50≤100 nM; compounds having an activity designated as “B” provided an 100 nM<IC50≤500 nM; compounds having an activity designated as “C” provided an 500 nM<IC50≤1000 nM; compounds having an activity designated as “D” provided an 1000 nM<IC50≤100000 nM; and compounds having an activity designated as “E” provided an IC50>10000 nM.

EGFR wt = EGFR wt (Homo sapiens, UniProt P00533); assay: EGFR wt Lance assay; type: biochemical
Description: as §3

A431 = A431 CellTiter-Glo; type: cell-based; conditions: Homo sapiens, A-431; 72 h compound incubation; read-out: A431 CTG IC50
Procedure, shortened: as §2

HER2 INS YVMA = target: T1, HER2 INS YVMA (Homo sapiens, UniProt P04626, INS775YVMA); assay: Lance Kinase Activity Assay, HER2 INS YVMA (Her2 Exon 20 INSYVMA Lance); type: biochemical; conditions: biochemical Lance assay
T1 construct: purchased DPF
T1 sequence (P04626 with tags, fused parts or gaps INS775YVMA): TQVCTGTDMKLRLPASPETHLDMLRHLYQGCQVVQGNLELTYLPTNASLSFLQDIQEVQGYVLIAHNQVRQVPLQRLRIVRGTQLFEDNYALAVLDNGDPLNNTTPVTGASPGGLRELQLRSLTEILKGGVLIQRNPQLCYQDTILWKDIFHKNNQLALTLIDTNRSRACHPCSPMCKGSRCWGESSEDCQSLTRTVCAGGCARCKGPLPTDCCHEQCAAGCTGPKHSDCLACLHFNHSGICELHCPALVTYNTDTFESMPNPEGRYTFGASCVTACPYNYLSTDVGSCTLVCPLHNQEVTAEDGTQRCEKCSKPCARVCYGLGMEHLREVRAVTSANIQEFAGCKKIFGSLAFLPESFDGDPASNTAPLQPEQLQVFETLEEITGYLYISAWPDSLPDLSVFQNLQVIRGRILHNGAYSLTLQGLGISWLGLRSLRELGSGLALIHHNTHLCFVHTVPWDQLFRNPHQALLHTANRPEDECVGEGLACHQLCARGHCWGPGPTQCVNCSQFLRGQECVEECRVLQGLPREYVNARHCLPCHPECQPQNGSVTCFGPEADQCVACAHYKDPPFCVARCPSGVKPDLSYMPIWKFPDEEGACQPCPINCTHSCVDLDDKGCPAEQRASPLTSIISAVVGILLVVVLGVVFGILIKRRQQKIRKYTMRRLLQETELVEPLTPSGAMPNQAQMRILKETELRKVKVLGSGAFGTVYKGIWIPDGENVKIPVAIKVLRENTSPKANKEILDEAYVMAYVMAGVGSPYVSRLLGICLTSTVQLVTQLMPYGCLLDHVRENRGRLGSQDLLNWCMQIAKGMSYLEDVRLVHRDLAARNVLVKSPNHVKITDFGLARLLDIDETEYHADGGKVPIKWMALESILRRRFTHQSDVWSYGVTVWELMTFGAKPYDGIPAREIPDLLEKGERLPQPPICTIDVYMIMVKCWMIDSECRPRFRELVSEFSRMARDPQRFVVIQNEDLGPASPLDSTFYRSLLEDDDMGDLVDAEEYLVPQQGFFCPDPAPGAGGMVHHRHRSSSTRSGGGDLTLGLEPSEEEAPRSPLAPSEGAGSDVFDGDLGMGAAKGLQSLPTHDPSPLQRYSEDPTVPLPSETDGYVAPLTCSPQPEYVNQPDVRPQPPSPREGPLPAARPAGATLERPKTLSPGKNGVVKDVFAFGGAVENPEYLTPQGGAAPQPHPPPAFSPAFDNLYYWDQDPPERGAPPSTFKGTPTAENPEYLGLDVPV
Procedure, shortened: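 Kinase phosphorylates a ULight-labelled peptide substrate; Eu anti-phospho antibody gives TR-FRET (ex 340 nm, em 665/615 nm). Compounds in 1:3 serial dilution over 8 steps, reaction started with ATP, 1 h at room temperature, stopped with EDTA-containing detection mix for 1 h. IC50 from sigmoidal dose-response curves.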

EGFR Exon 20 INSNPH Ba/F3, sequence (P00533 with tags, fused parts or gaps DUP771-773): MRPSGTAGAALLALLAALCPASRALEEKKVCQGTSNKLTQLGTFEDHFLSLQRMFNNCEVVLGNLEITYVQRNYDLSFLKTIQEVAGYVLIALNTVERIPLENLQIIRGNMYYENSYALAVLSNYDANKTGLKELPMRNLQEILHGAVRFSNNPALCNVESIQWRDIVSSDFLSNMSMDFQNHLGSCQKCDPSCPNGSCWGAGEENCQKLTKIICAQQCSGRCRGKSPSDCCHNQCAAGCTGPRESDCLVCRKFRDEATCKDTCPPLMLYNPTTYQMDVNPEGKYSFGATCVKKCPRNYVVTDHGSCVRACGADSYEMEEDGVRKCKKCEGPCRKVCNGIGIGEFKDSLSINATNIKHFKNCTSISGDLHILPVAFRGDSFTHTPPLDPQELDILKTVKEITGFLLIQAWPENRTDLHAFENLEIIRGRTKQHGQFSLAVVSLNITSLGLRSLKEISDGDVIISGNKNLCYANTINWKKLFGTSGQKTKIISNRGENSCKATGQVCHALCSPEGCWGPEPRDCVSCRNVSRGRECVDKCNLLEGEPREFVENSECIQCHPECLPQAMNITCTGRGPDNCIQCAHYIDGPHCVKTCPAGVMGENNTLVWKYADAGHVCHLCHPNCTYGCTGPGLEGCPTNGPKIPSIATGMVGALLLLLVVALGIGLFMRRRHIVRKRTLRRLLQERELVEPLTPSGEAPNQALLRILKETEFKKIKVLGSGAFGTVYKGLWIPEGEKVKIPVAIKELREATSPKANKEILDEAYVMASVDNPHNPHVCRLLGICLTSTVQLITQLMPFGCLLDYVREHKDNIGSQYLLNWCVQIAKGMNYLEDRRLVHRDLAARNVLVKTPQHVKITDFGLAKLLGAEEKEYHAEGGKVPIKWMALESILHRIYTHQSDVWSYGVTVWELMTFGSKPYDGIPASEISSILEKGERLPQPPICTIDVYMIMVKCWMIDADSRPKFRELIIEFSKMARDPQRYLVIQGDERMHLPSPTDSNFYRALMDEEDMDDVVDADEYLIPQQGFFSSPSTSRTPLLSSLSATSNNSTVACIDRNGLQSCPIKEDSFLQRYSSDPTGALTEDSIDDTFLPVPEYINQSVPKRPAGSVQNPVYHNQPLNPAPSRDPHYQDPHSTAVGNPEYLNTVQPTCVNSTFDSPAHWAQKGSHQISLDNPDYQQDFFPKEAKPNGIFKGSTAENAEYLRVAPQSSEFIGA

GI50 [1] | GI50 [2] | pIC50 (H1975) | pIC50 (EGFR T790ML858R) | pIC50 (EGFR wt) | pIC50 (A431) | pIC50 (HER2 INS YVMA) | Compound
500 to 1000 nM | 500 to 1000 nM | 6.00 to 6.30 | ≥ 7.00 | ≥ 7.00 | 4.00 to 6.00 | ≥ 7.00 | C=CC(=O)Nc1cc(-c2c(-c3cccc(CN4CCN(C)CC4)c3)[nH]c3ncc(C(=O)OC(C)C)cc23)ccc1C [Example 181, isopropyl 3-(3-acrylamido-4-methylphenyl)-2-(3-((4-methylpiperazin-1-yl)methyl)phenyl)-1H-pyrrolo[2,3-b]pyridine-5-carboxylate]
100 to 500 nM | 100 to 500 nM | 6.30 to 7.00 | ≥ 7.00 | ≥ 7.00 | 4.00 to 6.00 | ≥ 7.00 | C=CC(=O)Nc1cc(-c2c(-c3ccc(N4CCN(C)CC4)cc3)[nH]c3ncc(CC(=O)OC)cc23)ccc1C [Example 195, methyl 2-(3-(3-acrylamido-4-methylphenyl)-2-(4-(4-methylpiperazin-1-yl)phenyl)-1H-pyrrolo[2,3-b]pyridin-5-yl)acetate]
500 to 1000 nM | 500 to 1000 nM | 6.30 to 7.00 | ≥ 7.00 | ≥ 7.00 | 4.00 to 6.00 | ≥ 7.00 | C=CS(=O)(=O)Nc1cc(-c2c(-c3ccc(N4CCN(C)CC4)cc3)[nH]c3nccc(Cl)c23)ccc1C [Example 145, N-(5-(4-chloro-2-(4-(4-methylpiperazin-1-yl)phenyl)-1H-pyrrolo[2,3-b]pyridin-3-yl)-2-methylphenyl)ethenesulfonamide 2,2,2-trifluoroacetate]
500 to 1000 nM | 1000 to 10000 nM | 4.00 to 6.00 | ≥ 7.00 | ≥ 7.00 | 4.00 to 6.00 | ≥ 7.00 | C=CC(=O)Nc1cc(-c2c(-c3ccc(N4CCN(C(C)=O)CC4)cc3)[nH]c3ncc(C(=O)OC(C)C)cc23)ccc1C [Example 162, isopropyl 2-(4-(4-acetylpiperazin-1-yl)phenyl)-3-(3-acrylamido-4-methylphenyl)-1H-pyrrolo[2,3-b]pyridine-5-carboxylate]
100 to 500 nM | 100 to 500 nM | 6.30 to 7.00 | ≥ 7.00 | ≥ 7.00 | 6.00 to 6.30 | ≥ 7.00 | C=CC(=O)N1CCOc2ccc(-c3c(-c4cccc(OCCN5CCCC5)c4)[nH]c4nccc(Cl)c34)cc21 [Example 103, 1-(6-(4-chloro-2-(3-(2-(pyrrolidin-1-yl)ethoxy)phenyl)-1H-pyrrolo[2,3-b]pyridin-3-yl)-2H-benzo[b][1,4]oxazin-4(3H)-yl)prop-2-en-1-one]
≤ 100 nM | ≤ 100 nM | 6.30 to 7.00 | ≥ 7.00 | ≥ 7.00 | 4.00 to 6.00 | ≥ 7.00 | C=CC(=O)Nc1cc(-c2c(-c3ccc(N(C)CCN(C)C)cc3)[nH]c3ncc(C(=O)OC(C)C)c(C)c23)ccc1C [Example 204, isopropyl 3-(3-acrylamido-4-methylphenyl)-2-(4-((2-(dimethylamino)ethyl)(methyl)amino)phenyl)-4-methyl-1H-pyrrolo[2,3-b]pyridine-5-carboxylate]
1000 to 10000 nM | 1000 to 10000 nM | 4.00 to 6.00 | ≥ 7.00 | ≥ 7.00 | 4.00 to 6.00 | ≥ 7.00 | C#CC(=O)Nc1cc(-c2c(-c3ccc(N4CCN(C)CC4)cc3)[nH]c3nccc(Cl)c23)ccc1C [Example 144, N-(5-(4-chloro-2-(4-(4-methylpiperazin-1-yl)phenyl)-1H-pyrrolo[2,3-b]pyridin-3-yl)-2-methylphenyl)propiolamide 2,2,2-trifluoroacetate]
500 to 1000 nM | 500 to 1000 nM | 6.30 to 7.00 | ≥ 7.00 | ≥ 7.00 | 4.00 to 6.00 | ≥ 7.00 | C=CC(=O)N1CCCc2ccc(-c3c(-c4ccc(C5CCN(C)CC5)cc4)[nH]c4nccc(Cl)c34)cc21 [Example 87, 1-(7-(4-chloro-2-(4-(1-methylpiperidin-4-yl)phenyl)-1H-pyrrolo[2,3-b]pyridin-3-yl)-3,4-dihydroquinolin-1(2H)-yl)prop-2-en-1-one]
1000 to 10000 nM | 1000 to 10000 nM | 6.30 to 7.00 | ≥ 7.00 | ≥ 7.00 | 4.00 to 6.00 | 6.00 to 6.30 | C/C=C/C(=O)Nc1cc(-c2c(-c3ccc(N4CCN(C)CC4)cc3)[nH]c3nccc(Cl)c23)ccc1C [Example 142, (E)-N-(5-(4-chloro-2-(4-(4-methylpiperazin-1-yl)phenyl)-1H-pyrrolo[2,3-b]pyridin-3-yl)-2-methylphenyl)but-2-enamide 2,2,2-trifluoroacetate]
100 to 500 nM | 100 to 500 nM | 6.30 to 7.00 | ≥ 7.00 | ≥ 7.00 | 4.00 to 6.00 | ≥ 7.00 | C=CC(=O)Nc1cc(-c2c(-c3ccc(N4CCN(C)CC4)cc3)[nH]c3ncc(C(=O)OCCOC)cc23)ccc1C [Example 140, 2-methoxyethyl 3-(3-acrylamido-4-methylphenyl)-2-(4-(4-methylpiperazin-1-yl)phenyl)-1H-pyrrolo[2,3-b]pyridine-5-carboxylate]
> 10000 nM | > 10000 nM | < 5.00 | ≥ 7.00 | ≥ 7.00 | < 5.00 | ≥ 7.00 | C=CC(=O)Nc1cc(-c2c(-c3ccc(N4CCN(C)CC4)cc3)[nH]c3ncc(CC(=O)O)cc23)ccc1C [Example 189, 2-(3-(3-acrylamido-4-methylphenyl)-2-(4-(4-methylpiperazin-1-yl)phenyl)-1H-pyrrolo[2,3-b]pyridin-5-yl)acetic acid 2,2,2-trifluoroacetate]
1000 to 10000 nM | 1000 to 10000 nM | < 5.00 | ≥ 7.00 | ≥ 7.00 | 4.00 to 6.00 | 6.00 to 6.30 | C=CC(=O)Nc1cc(-c2c(-c3ccc(N4CCN(C)CC4)cc3)[nH]c3ncc(C(=O)NCCc4ccncc4)cc23)ccc1C [Example 123, 3-(3-acrylamido-4-methylphenyl)-2-(4-(4-methylpiperazin-1-yl)phenyl)-N-(2-(pyridin-4-yl)ethyl)-1H-pyrrolo[2,3-b]pyridine-5-carboxamide]
500 to 1000 nM | 100 to 500 nM | 6.00 to 6.30 | ≥ 7.00 | ≥ 7.00 | 6.00 to 6.30 | 6.30 to 7.00 | C=CC(=O)Nc1cc(-c2c(-c3ccc(N4CCN(C)CC4)cc3)[nH]c3ncc(C(=O)NCCc4ccc(F)cc4)cc23)ccc1C [Example 124, 3-(3-acrylamido-4-methylphenyl)-N-(4-fluorophenethyl)-2-(4-(4-methylpiperazin-1-yl)phenyl)-1H-pyrrolo[2,3-b]pyridine-5-carboxamide]
1000 to 10000 nM | 1000 to 10000 nM | 4.00 to 6.00 | 6.30 to 7.00 | ≥ 7.00 | 4.00 to 6.00 | 6.30 to 7.00 | C=CC(=O)Nc1cc(-c2c(-c3cccc(CN4CCN(C(C)=O)CC4)c3)[nH]c3ncc(C(=O)OC(C)C)cc23)ccc1C [Example 186, isopropyl 2-(3-((4-acetylpiperazin-1-yl)methyl)phenyl)-3-(3-acrylamido-4-methylphenyl)-1H-pyrrolo[2,3-b]pyridine-5-carboxylate]
1000 to 10000 nM | 1000 to 10000 nM | 6.30 to 7.00 | ≥ 7.00 | ≥ 7.00 | 4.00 to 6.00 | ≥ 7.00 | C=CC(=O)N1CCCc2ccc(-c3c(-c4cccc(OCCN5CCCC5)c4)[nH]c4nccc(Cl)c34)cc21 [Example 94, 1-(7-(4-chloro-2-(3-(2-(pyrrolidin-1-yl)ethoxy)phenyl)-1H-pyrrolo[2,3-b]pyridin-3-yl)-3,4-dihydroquinolin-1(2H)-yl)prop-2-en-1-one]
1000 to 10000 nM | 1000 to 10000 nM | 4.00 to 6.00 | 6.00 to 6.30 | ≥ 7.00 | 4.00 to 6.00 | 5.00 to 6.00 | C=CC(=O)Nc1cc(-c2c(-c3ccc(N4CCOCC4)nc3)[nH]c3ncc(C(=O)OC(C)C)cc23)ccc1C [Example 171, isopropyl 3-(3-acrylamido-4-methylphenyl)-2-(6-morpholinopyridin-3-yl)-1H-pyrrolo[2,3-b]pyridine-5-carboxylate]
